From patent publication US10183014B2, “Ocular formulations for drug-delivery and protection of the anterior segment of the eye” (PanOptica, Inc., priority 2014, dated 2019)
Values joined by “and” are separate entries in the source; they are usually repeats but may differ in a detail not shown here. Identical values can stand only once. Like-named read-outs stand apart in the source and are kept apart here.

Columns and labels:
[1] = Particle size distribution by laser diffraction light scattering; assay type: physicochemical; settings: API form Freebase
Protocol: Particle size distribution can be analyzed using laser diffraction light scattering, e.g., with a Horiba LA-950 V2. Generic assumptions are made in setting conditions and the refractive index value. The distributions are volume based. Sample density is adjusted to a generic range of percent transmission on the blue LED light source. A small sample cell (filled with water) can be used rather than the flow through cell, to minimize sample quantity.
Particle size distribution was analyzed using laser diffraction light scattering with a Horiba LA-950 V2. Generic assumptions were made in setting conditions and the refractive index value. The distributions were volume based. Sample density was adjusted to a generic range of percent transmission on the blue LED light source. A small sample cell (filled with water) was used rather than the flow through cell, to minimize sample quantity.

[2] = Ocular pharmacokinetics of formulations, Example 20-4; assay type: in vivo, Dutch Belted rabbits; settings: Dutch Belted, rabbit, topical, PSD 30 μm/XL, HPMC 0.08%, glycerol 2.5%, HEC 0.2%, VitK3 1 μM, pH ≈7.5, QD, Day 5, 1 hr post dose
Protocol: The study design (Table 18-1) consisted of forty-nine (49) Dutch Belted rabbits, each receiving a 30 μL bilateral topical ocular dose.
Ocular sampling occurred one hour following the first daily dose on Day 5 for all groups. Whole blood samples using K2EDTA as an anticoagulant were collected from all animals on Day 5, 1 hour post dose. The whole blood was placed on ice until samples were spun in a centrifuge to separate the plasma. Aqueous humor, conjunctiva, cornea, central retina, peripheral retina, central choroid, and peripheral choroid samples were collected following necropsy. Samples were then frozen at −70° C. or lower. For all Groups 1-16, plasma, central retina, central choroid, and cornea samples were assayed for PAN-90806.

EGFR = target: T1, EGFR (Homo sapiens, UniProt P00533); test: EGFR tyrosine phosphorylation assay in hTCEpi cells with a second active agent; assay type: cell-based; settings: vitamin K 50 μM, nicotinic acid 10 μM or nicotinamide 10 μM, 4 hours pre-treatment; EGF 50 ng/ml
T1 construct: endogenous in cells; host or cells: hTCEpi (immortalized corneal epithelial cells)
T1 sequence (P00533 25-1210): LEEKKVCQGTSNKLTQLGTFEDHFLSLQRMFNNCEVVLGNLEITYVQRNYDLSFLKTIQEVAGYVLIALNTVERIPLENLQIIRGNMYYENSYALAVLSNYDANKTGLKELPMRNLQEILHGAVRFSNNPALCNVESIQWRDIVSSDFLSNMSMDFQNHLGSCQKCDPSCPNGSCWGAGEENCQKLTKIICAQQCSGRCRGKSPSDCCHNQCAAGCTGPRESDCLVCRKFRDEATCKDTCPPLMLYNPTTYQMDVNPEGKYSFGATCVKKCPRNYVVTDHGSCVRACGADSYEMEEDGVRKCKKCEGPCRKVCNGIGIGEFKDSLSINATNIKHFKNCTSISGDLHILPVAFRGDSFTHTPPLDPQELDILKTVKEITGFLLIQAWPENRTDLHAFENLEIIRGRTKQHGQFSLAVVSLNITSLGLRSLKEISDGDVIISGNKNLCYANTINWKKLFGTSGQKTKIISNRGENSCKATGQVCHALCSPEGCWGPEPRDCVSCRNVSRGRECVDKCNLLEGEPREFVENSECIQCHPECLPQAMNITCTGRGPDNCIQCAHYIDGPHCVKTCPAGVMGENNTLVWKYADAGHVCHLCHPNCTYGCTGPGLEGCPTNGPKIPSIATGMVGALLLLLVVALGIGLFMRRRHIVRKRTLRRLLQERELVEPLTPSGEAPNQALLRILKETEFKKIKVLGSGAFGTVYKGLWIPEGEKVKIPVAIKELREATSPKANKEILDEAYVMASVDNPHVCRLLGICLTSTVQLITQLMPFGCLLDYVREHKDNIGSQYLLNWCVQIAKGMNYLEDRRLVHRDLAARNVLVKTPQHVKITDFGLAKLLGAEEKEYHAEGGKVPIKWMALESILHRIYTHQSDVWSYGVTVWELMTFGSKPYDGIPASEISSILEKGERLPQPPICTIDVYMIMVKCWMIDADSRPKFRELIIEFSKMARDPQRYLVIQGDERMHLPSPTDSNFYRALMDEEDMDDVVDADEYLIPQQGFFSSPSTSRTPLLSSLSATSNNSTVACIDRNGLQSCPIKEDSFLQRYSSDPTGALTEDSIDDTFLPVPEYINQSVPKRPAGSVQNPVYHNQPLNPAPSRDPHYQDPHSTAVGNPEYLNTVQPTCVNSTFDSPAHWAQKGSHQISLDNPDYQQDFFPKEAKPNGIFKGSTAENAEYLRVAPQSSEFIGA
Protocol: An EGFR tyrosine assay in corneal epithelial cells is run to determine if Vitamin K or nicotinic acid/nicotinamide can overcome inhibition of EGFR and if there is an increase in EGFR activity. […] Cells are harvested cells and immunoblotted for determination of phosphorylated EGFR (tyrosine 1068 and tyrosine 1045) and total EGFR concentration which was used to determine receptor activity (IC50).
The cells were then incubated with EGF (50 ng/ml) for 15 minutes. Cells were harvested and cell lysates were immunoblotted for determination of phosphorylated EGFR (tyrosine 1068 and tyrosine 1045) and total EGFR concentration.

[3] = excipient PVP K-29/32, roller speed high, media size 0.8 mm, particles under storage 1 day, RT
[4] = excipient PVP K-29/32, roller speed high, media size 0.8 mm, particles under storage 15 days, RT
[5] = excipient Pluronic F-127, milling not given, particles under storage 6 days, 40° C.
[6] = excipient Pluronic F-127, roller speed high, media size 0.8 mm, particles under storage 3 days, RT
[7] = excipient Pluronic F-127, roller speed low, media size 3 mm
[8] = excipient Tween 80, milling not given
[9] = excipient Tween 80, roller speed high, media size 0.8 mm, particles under storage 28 days, RT

NC(=O)c1c(OCc2c(F)cc(Br)cc2F)nsc1NC(=O)NCCCCN1CCCC1 [Formula II]
PSD (Particle Size Distribution) Mean [1, 3]: ~210 nm | PSD (Particle Size Distribution) Median [1, 3]: ~150 nm | PSD (Particle Size Distribution) Mean [1, 4]: ~170 nm | PSD (Particle Size Distribution) Median [1, 4]: ~130 nm | PSD (Particle Size Distribution) Mean [1, 5]: ~3100 nm | PSD (Particle Size Distribution) Median [1, 5]: ~2500 nm | PSD (Particle Size Distribution) Mean [1, 6]: ~130 nm | PSD (Particle Size Distribution) Median [1, 6]: ~120 nm | PSD (Particle Size Distribution) Mean [1, 7]: ~8100 nm and ~4700 nm | PSD (Particle Size Distribution) Median [1, 7]: ~6200 nm and ~4400 nm | PSD (Particle Size Distribution) Mean [1, 8]: ~2000 nm | PSD (Particle Size Distribution) Median [1, 8]: ~300 nm | PSD (Particle Size Distribution) Mean [1, 9]: ~370 nm | PSD (Particle Size Distribution) Median [1, 9]: ~160 nm | PSD (Particle Size Distribution) Median ([1]; excipient Tween 80, roller speed low, media size 3 mm): ~5500 nm and ~3900 nm and ~3700 nm and ~3500 nm | concentration at 1 h ([2]; central choroid, 4 mg/mL (30 μL per eye, bilateral), Group 4: 4 mg/mL FB suspension, read-out: Central Choroid concentration): 203 nM | concentration at 1 h ([2]; central choroid, Group 5: 6 mg/mL FB suspension, read-out: Central Choroid concentration): 203 nM | concentration at 1 h ([2]; central retina, 4 mg/mL (30 μL per eye, bilateral), Group 4: 4 mg/mL FB suspension, read-out: Central Retina concentration): 38.4 nM | concentration at 1 h ([2]; central retina, Group 5: 6 mg/mL FB suspension, read-out: Central Retina concentration): 47.9 nM | concentration at 1 h ([2]; cornea, 4 mg/mL (30 μL per eye, bilateral), Group 4: 4 mg/mL FB suspension, read-out: Cornea concentration): 21300 nM | concentration at 1 h ([2]; cornea, Group 5: 6 mg/mL FB suspension, read-out: Cornea concentration): 23800 nM | concentration at 1 h ([2]; plasma, 4 mg/mL (30 μL per eye, bilateral), Group 4: 4 mg/mL FB suspension, read-out: Plasma concentration): 3.27 nM | concentration at 1 h ([2]; plasma, Group 5: 6 mg/mL FB suspension, read-out: Plasma concentration): 3.91 nM

NC(=O)c1cccnc1 [nicotinamide]
Effect on Formula I or II compound-mediated EGFR inhibition (EGFR): overcome

O=C(O)c1cccnc1 [nicotinic acid]
Effect on Formula I or II compound-mediated EGFR inhibition (EGFR): overcome
